How the values were obtained:
[1] = system: THP-1; assay: Effect on ABCA1 gene expression in human differentiated THP1 cells relative to TO901317; type: functional
[2] = system: Mus musculus; assay: Decrease in total cholesterol level in LDL receptor knockout C57BL/6 mouse plasma at 10 mg/kg administered with Western diet after 8 weeks; type: functional; set-up: scale not given: the % may be the effect or the level left
[3] = system: HepG2; assay: Effect on SREBP1c gene expression in human HepG2 cells; type: functional, cell-based
[4] = system: THP-1; assay: Stimulation of [3H]cholesterol efflux in human THP1 foam cells loaded with ac-LDL; type: functional, cell-based
[5] = system: HepG2; assay: Effect on triglyceride accumulation in human HepG2 cells relative to TO901317; type: functional
[6] = system: Syrian golden hamster; assay: Effect on triglyceride level in golden Syrian hamster plasma at 3 mg/kg administered with chow diet for 7 days measured after 2 hrs of final dose; type: functional, Mesocricetus auratus
[7] = system: Mus musculus; assay: Reduction in atherosclerotic lesion size in LDL receptor knockout C57BL/6 mouse thoracic aorta at 10 mg/kg administered with Western diet after 8 weeks by oil Red-O staining; type: functional; set-up: scale not given: the % may be the effect or the level left
[8] = system: HepG2; assay: Effect on triglyceride accumulation in human HepG2 cells; type: functional, cell-based
[9] = system: THP-1; assay: Stimulation of [3H]cholesterol efflux in human THP1 foam cells loaded with ac-LDL relative to TO901317; type: functional
[10] = system: HepG2; assay: Effect on SREBP1c gene expression in human HepG2 cells relative to TO901317; type: functional
[11] = system: Syrian golden hamster; assay: Induction of FAS gene expression in golden Syrian hamster liver at 3 mg/kg administered with chow diet for 7 days measured after 2 hrs of final dose by real time PCR; type: functional, Mesocricetus auratus
[12] = Half life in C57 mouse at 1 mg/kg, iv; type: ADME, organism-based; set-up: dose 1 mg/kg, route intravenous; conditions: in vivo
[13] = Cmax in male C57 mice after 10 mg/kg oral dose; type: ADME, organism-based; set-up: dose 10 mg/kg, route oral; conditions: C57, mouse, in vivo
[14] = Terminal half life in C57 mouse at 10 mg/kg, po; type: ADME, organism-based; set-up: dose 10 mg/kg, route oral; conditions: in vivo, read-out: beta t1/2 (converted)
[15] = Bioavailability in C57 mouse at 1 mg/kg, iv and 10 mg/kg, po; type: ADME, organism-based; conditions: in vivo
[16] = AUC (0 to infinity) in C57 mouse at 1 mg/kg, iv and 10 mg/kg, po; type: ADME, organism-based; conditions: plasma
[17] = Tmax in C57 mouse at 1 mg/kg, iv and 10 mg/kg, po; type: ADME, organism-based; conditions: in vivo
[18] = Clearance in C57 mouse at 1 mg/kg, iv and 10 mg/kg, po; type: ADME, organism-based; conditions: in vivo
[19] = Volume of distribution at steady state in C57 mouse at 1 mg/kg, iv and 10 mg/kg, po; type: ADME, organism-based; conditions: in vivo, read-out: Vdss
[20] = system: Mus musculus; assay: Increase in CYP7A1 gene expression in LDL receptor knockout C57BL/6 mouse liver at 10 mg/kg administered with Western diet; type: functional
[21] = system: THP-1; assay: Effect on ABCA1 gene expression in human differentiated THP1 cells; type: functional, cell-based
[22] = molecular target: T1, Oxysterols receptor LXR-alpha (Homo sapiens, UniProt Q13133)
[23] = molecular target: T2, Oxysterols receptor LXR-beta (Homo sapiens, UniProt P55055); assay: Agonist activity at human recombinant LXRbeta ligand binding domain in human HuH7 cells co-transfected with fused Gal4-DBD by transactivation assay; type: cell-based, Huh-7
T2 sequence (P55055 whole entry): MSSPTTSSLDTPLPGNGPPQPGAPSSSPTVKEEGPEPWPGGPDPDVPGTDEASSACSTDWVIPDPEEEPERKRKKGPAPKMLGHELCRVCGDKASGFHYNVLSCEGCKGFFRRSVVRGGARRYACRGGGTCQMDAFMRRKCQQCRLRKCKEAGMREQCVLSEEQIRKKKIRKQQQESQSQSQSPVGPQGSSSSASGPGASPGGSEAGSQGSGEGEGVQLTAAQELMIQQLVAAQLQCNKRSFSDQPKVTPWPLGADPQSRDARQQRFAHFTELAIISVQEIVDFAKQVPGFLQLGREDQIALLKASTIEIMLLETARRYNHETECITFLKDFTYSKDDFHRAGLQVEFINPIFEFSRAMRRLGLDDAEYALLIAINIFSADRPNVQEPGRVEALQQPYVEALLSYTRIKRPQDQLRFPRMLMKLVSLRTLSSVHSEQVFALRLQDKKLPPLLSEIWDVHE

[24] = system: Mus musculus; assay: Upregulation of ABCA1 gene expression in LDL receptor knockout C57BL/6 mouse duodenum at 10 mg/kg administered with Western diet; type: functional; conditions: route oral
[25] = molecular target: T2, Oxysterols receptor LXR-beta
[26] = molecular target: T1, Oxysterols receptor LXR-alpha; remark: listed apart in the source

Structure (SMILES)	Efficacy [1] [%]	Activity [2] [%]	EC50 [3] [nM]	EC50 [4] [nM]	Efficacy [5] [%]	Activity [7] [%]	EC50 [8] [nM]	Efficacy [9] [%]	Efficacy [10] [%]	EC50 [23] [nM]	also measured
O=C(O)Cc1ccc(COc2cccc(-c3c(Cc4ccccc4)cnc4c(C(F)(F)F)cccc34)c2)cc1	155	20	120	6	85	38	223	88	96		Activity [6]: 25%; fold change (FC) [11]: 4
FC(F)(F)c1cccc2c(-c3ccccc3)n(Cc3ccccc3)nc12											half-life [12]: 1.9 h; Cmax [13]: 124 ng/mL; half-life [14]: 2.2 h; bioavailability [15]: 16%; AUC(0-inf) [16]: 321 ng·h/mL; Tmax [17]: 0.25 h; clearance [18]: 81 mL/min/kg; Vd [19]: 5.2 L/kg
O=C(O)Cc1cccc(OCCCN(Cc2cccc(C(F)(F)F)c2Cl)CC(c2ccccc2)c2ccccc2)c1	178	17	210	31	45	40	2000	84	137	310	fold change (FC) [20]: 1.9; EC50 [21]: 434 nM; EC50 [22]: 660 nM; fold change (FC) [24]: 6.9
O=S(=O)(c1ccccc1)N(CC(F)(F)F)c1ccc(C(O)(C(F)(F)F)C(F)(F)F)cc1 [T091317]	100		61	3	100			100	100		
O=C(O)Cc1ccc(CNc2cccc(-c3c(Cc4ccccc4)cnc4c(C(F)(F)F)cccc34)c2)cc1										90	IC50 [25]: 2 nM; IC50 [26]: 8 nM
